The record followed here is US12404285B2, “KRAS G12D proteolysis targeting chimeras” (PAQ Therapeutics Inc., priority 2022, dated 2025).

SMILES strings stand for the structures.

The target in the assay is T1, KRAS (G12D)-HiBit in AsPc-1-KRAS (G12D)-HiBit-KI cell (Homo sapiens, UniProt P01116, G12D).
T1 construct: host or cells: AsPc-1-KRAS (G12D)-HiBit-KI cells (knock-in line)
T1 sequence (P01116 1-188 isoform P01116-2 G12D): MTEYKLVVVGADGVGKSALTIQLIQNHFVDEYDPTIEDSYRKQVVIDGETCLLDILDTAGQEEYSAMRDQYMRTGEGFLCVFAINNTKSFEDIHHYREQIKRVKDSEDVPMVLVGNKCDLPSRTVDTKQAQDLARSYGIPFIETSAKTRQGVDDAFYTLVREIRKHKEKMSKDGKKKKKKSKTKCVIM
Briefly: G12D HiBit assay. Type of assay: cell-based. The conditions noted are these: 24 hours compound treatment, absolute DC50, read-out: Average PHA DC50. A digest of the protocol:
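AsPc-1 cells with HiBiT knocked into KRAS G12D, seeded at 5×10^3/well and held overnight, then treated 24 h with 10-point 3-fold dilutions (300 nM to 0.015 nM). Lytic Nano-Glo HiBiT luminescence expressed as % of 0.1% DMSO control; absolute DC50 from curve fit.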
In general terms: The HiBiT peptide binds its large partner to form an active luciferase.
As for `C#Cc1c(F)ccc2cccc(-c3ncc4c(N5CC6CCC(C5)N6)nc(OC[C@@]56CCCN5[C@H](COC(=O)N5CCC(OCCCCc7cccc8c7n(C)c(=O)n8C7CCC(=O)NC7=O)CC5)CC6)nc4c3F)c12` (stereo partly drawn) [Compound 117, [(3S,8S)-8-[[4-(3,8-Diazabicyclo[3.2.1]octan-3-yl)-7-(8-ethynyl-7-fluoro-1-naphthyl)-8-fluoro-pyrido[4,3-d]pyrimidin-2-yl]oxymethyl]-1,2,3,5,6,7-hexahydropyrrolizin-3-yl]methyl4-[4-[1-(2,6-dioxo-3-piperidyl)-3-methyl-2-oxo-benzimidazol-4-yl]butoxy]piperidine-1-carboxylate], the DC50 is below 100 nM. The same measure for `C#Cc1c(F)ccc2cccc(-c3ncc4c(N5CC6CCC(C5)N6)nc(OC[C@@]56CCCN5[C@H](COC(=O)N5CCC(OCCCCCc7ccc8c(c7)n(C)c(=O)n8C7CCC(=O)NC7=O)CC5)CC6)nc4c3F)c12` (stereo partly drawn) [Compound 120, [(3S,8S)-8-[[4-(3,8-Diazabicyclo[3.2.1]octan-3-yl)-7-(8-ethynyl-7-fluoro-1-naphthyl)-8-fluoro-pyrido[4,3-d]pyrimidin-2-yl]oxymethyl]-1,2,3,5,6,7-hexahydropyrrolizin-3-yl]methyl 4-[5-[1-(2,6-dioxo-3-piperidyl)-3-methyl-2-oxo-benzimidazol-5-yl]pentoxy]piperidine-1-carboxylate]: below 100 nM. For `C#Cc1c(F)ccc2cccc(-c3ncc4c(N5CC6CCC(C5)N6)nc(OC[C@@]56CCCN5[C@H](COC(=O)N5CC7(CCN(c8cccc9c8n(C)c(=O)n9C8CCC(=O)NC8=O)CC7)C5)CC6)nc4c3F)c12` (stereo partly drawn) [Compound 121, [(3S,8S)-8-[[4-(3,8-Diazabicyclo[3.2.1]octan-3-yl)-7-(8-ethynyl-7-fluoro-1-naphthyl)-8-fluoro-pyrido[4,3-d]pyrimidin-2-yl]oxymethyl]-1,2,3,5,6,7-hexahydropyrrolizin-3-yl]methyl 7-[1-(2,6-dioxo-3-piperidyl)-3-methyl-2-oxo-benzimidazol-4-yl]-2,7-diazaspiro[3.5]nonane-2-carboxylate], the DC50 is at least 300 nM. With `C#Cc1c(F)ccc2cccc(-c3ncc4c(N5CC6CCC(C5)N6)nc(OC[C@@]56CCCN5[C@H](COC(=O)N5CCC(OCCCCCc7cccc8c7n(C)c(=O)n8C7CCC(=O)NC7=O)CC5)CC6)nc4c3F)c12` (stereo partly drawn) [Compound 122, [(3S,8S)-8-[[4-(3,8-diazabicyclo[3.2.1]octan-3-yl)-7-(8-ethynyl-7-fluoro-1-naphthyl)-8-fluoro-pyrido[4,3-d]pyrimidin-2-yl]oxymethyl]-1,2,3,5,6,7-hexahydropyrrolizin-3-yl]methyl4-[5-[1-(2,6-dioxo-3-piperidyl)-3-methyl-2-oxo-benzimidazol-4-yl]pentoxy]piperidine-1-carboxylate] the figure was below 100 nM. The same measure for `C#Cc1c(F)ccc2cccc(-c3ncc4c(N5CC6CCC(C5)N6)nc(OC[C@@]56CCCN5[C@H](COC(=O)NCCOCCN5CCN(c7cccc8c7n(C)c(=O)n8C7CCC(=O)NC7=O)CC5)CC6)nc4c3F)c12` (stereo partly drawn) [Compound 123, [(3S,8S)-8-[[4-(3,8-diazabicyclo[3.2.1]octan-3-yl)-7-(8-ethynyl-7-fluoro-1-naphthyl)-8-fluoro-pyrido[4,3-d]pyrimidin-2-yl]oxymethyl]-1,2,3,5,6,7-hexahydropyrrolizin-3-yl]methyl N-[2-[2-[4-[1-(2,6-dioxo-3-piperidyl)-3-methyl-2-oxo-benzimidazol-4-yl]piperazin-1-yl]ethoxy]ethyl]carbamate]: at least 300 nM; for `C#Cc1c(F)ccc2cccc(-c3ncc4c(N5CC6CCC(C5)N6)nc(OC[C@@]56CCCN5[C@H](COC(=O)N5CCC7(CC5)CC(CCc5cccc8c5n(C)c(=O)n8C5CCC(=O)NC5=O)C7)CC6)nc4c3F)c12` (stereo partly drawn) [Compound 124, [(3S,8S)-8-[[4-(3,8-Diazabicyclo[3.2.1]octan-3-yl)-7-(8-ethynyl-7-fluoro-1-naphthyl)-8-fluoro-pyrido[4,3-d]pyrimidin-2-yl]oxymethyl]-1,2,3,5,6,7-hexahydropyrrolizin-3-yl]methyl 2-[2-[1-(2,6-dioxo-3-piperidyl)-3-methyl-2-oxo-benzimidazol-4-yl]ethyl]-7-azaspiro[3.5]nonane-7-carboxylate]: below 100 nM. The same measure for `C#Cc1c(F)ccc2cccc(-c3ncc4c(N5CC6CCC(C5)N6)nc(OC[C@@]56CCCN5[C@H](COC(=O)NC[C@@H]5CN(CC#Cc7cccc8c7n(C)c(=O)n8C7CCC(=O)NC7=O)CCO5)CC6)nc4c3F)c12` (stereo partly drawn) [Compound 125, [(3S,8S)-8-[[4-(3,8-Diazabicyclo[3.2.1]octan-3-yl)-7-(8-ethynyl-7-fluoro-1-naphthyl)-8-fluoro-pyrido[4,3-d]pyrimidin-2-yl]oxymethyl]-1,2,3,5,6,7-hexahydropyrrolizin-3-yl]methylN-[[(2R)-4-[3-[1-(2,6-dioxo-3-piperidyl)-3-methyl-2-oxo-benzimidazol-4-yl]prop-2-ynyl]morpholin-2-yl]methyl]carbamate]: at least 300 nM; for `C#Cc1c(F)ccc2cccc(-c3ncc4c(N5CC6CCC(C5)N6)nc(OC[C@@]56CCCN5[C@H](COC(=O)NC[C@@H]5CN(CCCc7cccc8c7n(C)c(=O)n8C7CCC(=O)NC7=O)CCO5)CC6)nc4c3F)c12` (stereo partly drawn) [Compound 126, [(3S,8S)-8-[[4-(3,8-Diazabicyclo[3.2.1]octan-3-yl)-7-(8-ethynyl-7-fluoro-1-naphthyl)-8-fluoro-pyrido[4,3-d]pyrimidin-2-yl]oxymethyl]-1,2,3,5,6,7-hexahydropyrrolizin-3-yl]methyl N-[[(2 R)-4-[3-[1-(2,6-dioxo-3-piperidyl)-3-methyl-2-oxo-benzimidazol-4-yl]propyl]morpholin-2-yl]methyl]carbamate]: at least 300 nM; for `C#Cc1c(F)ccc2cccc(-c3ncc4c(N5CC6CCC(C5)N6)nc(OC[C@@]56CCCN5[C@H](COC(=O)N5CCC(C7CCN(c8cccc9c8n(C)c(=O)n9C8CCC(=O)NC8=O)CC7)CC5)CC6)nc4c3F)c12` (stereo partly drawn) [Compound 127, [(3S,8S)-8-[[4-(3,8-Diazabicyclo[3.2.1]octan-3-yl)-7-(8-ethynyl-7-fluoro-1-naphthyl)-8-fluoro-pyrido[4,3-d]pyrimidin-2-yl]oxymethyl]-1,2,3,5,6,7-hexahydropyrrolizin-3-yl]methyl 4-[1-[1-(2,6-dioxo-3-piperidyl)-3-methyl-2-oxo-benzimidazol-4-yl]-4-piperidyl]piperidine-1-carboxylate]: at least 300 nM. On to `C#Cc1c(F)ccc2cccc(-c3ncc4c(N5CC6CCC(C5)N6)nc(OC[C@@]56CCCN5[C@H](COC(=O)N5CCC(COC7CCN(Cc8cccc9c8n(C)c(=O)n9C8CCC(=O)NC8=O)CC7)CC5)CC6)nc4c3F)c12` (stereo partly drawn) [Compound 128, [(3S,8S)-8-[[4-(3,8-diazabicyclo[3.2.1]octan-3-yl)-7-(8-ethynyl-7-fluoro-1-naphthyl)-8-fluoro-pyrido[4,3-d]pyrimidin-2-yl]oxymethyl]-1,2,3,5,6,7-hexahydropyrrolizin-3-yl]methyl4-[[1-[[1-(2,6-dioxo-3-piperidyl)-3-methyl-2-oxo-benzimidazol-4-yl]methyl]-4-piperidyl]oxymethyl]piperidine-1-carboxylate], for which the DC50 was below 100 nM.
